One compound from patent publication US20240197767A1, “COMBINATION OF ZIDOVUDINE WITH A TETRACYCLINE ANTIBIOTIC” (Helperby Therapeutics Limited, priority 2019, published 2024) can be followed below.

Holding throughout (experiment): Chequerboard MIC/synergy testing of zidovudine and doxycycline, log phase bacteria
Common to all, as to format: cell-based

Assay [1] has as its system BAA2472 NDM-1 Klebsiella pneumoniae. The conditions noted are these: BAA2472, read-out: MIC Doxycycline. The method, then: (§1) Synergy in the context of antimicrobial drugs is measured in a number of ways that conform to the generally accepted opinion that “synergy is an effect greater than additive”. One of the ways to assess whether synergy has been observed is to use the “chequerboard” technique. This is a well-accepted method that leads to the generation of a value called the fractional inhibitory concentration index (FICI). Orhan et al., J. Clin. Microbiol. 2005, 43(1):140 describes the chequerboard method and analysis in the paragraph bridging pages 140-141, and explains that the FICI value is a ratio of the sum of the MIC (Minimum Inhibitory Concentration) level of each individual component alone and in the mixture. The combination is considered synergistic when the ΣFIC is ≤0.5, indifferent when the ΣFIC is >0.5 but <4.0, and antagonistic when the ΣFIC is >4.0.
(§2) The chequerboard method used in Example 1 followed the protocols detailed in Antimicrob Chemo (2013) 68, 374-384. Zidovudine and doxycycline were obtained from commercially available sources. The bacteria used were BAA2469 NDM-1 Escherichia coli, BAA2470 NDM-1 Klebsiella pneumoniae, BAA2471 NDM-1 Escherichia coli, BAA2472 NDM-1 Klebsiella pneumoniae, and NCTC13443 NDM-1 Klebsiella pneumoniae. All strains were obtained from a commercial source and log phase growth of the bacteria was carried out using methods known in the art.
(§3) The effects of the combination of the present invention were examined by calculating the fractional inhibitory concentration index (FICI) of each combination, as follows:
(§4) (MIC of drug A,tested in combination)/(MIC of drug A,tested alone)+(MIC of drug B,tested in combination)/(MIC of drug B,tested alone).
(§5) The interaction of the combination was defined as showing synergy if the FICI was […], no interaction if the FICI was >0.5 but <4.0 and antagonism if the FICI was >4.0.

In assay [2] the test system is BAA2470 NDM-1 Klebsiella pneumoniae. The note with it: strain BAA2470, doxycycline alone. The method, then: as §1, §2, §3, §4, §5
In assay [3] the test system is BAA2469 NDM-1 Escherichia coli. The note with it: strain BAA2469, doxycycline alone. The method, then: as §1, §2, §3, §4, §5
For assay [4], the system named is BAA2471 NDM-1 Escherichia coli. The note with it: BAA2471, read-out: MIC Doxycycline. The protocol: as §1, §2, §3, §4, §5
For assay [5], the system named is NCTC13443 NDM-1 Klebsiella pneumoniae. The conditions noted are these: strain NCTC13443, doxycycline alone. The method, then: as §1, §2, §3, §4, §5

A word on the MIC: it is the smallest concentration in the dilution series that meets the test's criterion for growth inhibition. In the case of `C[C@H]1c2cccc(O)c2C(=O)C2=C(O)[C@]3(O)C(=O)C(C(N)=O)=C(O)[C@@H](N(C)C)[C@@H]3[C@@H](O)[C@@H]21` [Doxycycline, (4S,4aR,5S,5aR,6R,12aR)-4-(dimethylamino)-1,5,10,11,12a-pentahydroxy-6-methyl-3,12-dioxo-4a,5,5a,6-tetrahydro-4H-tetracene-2-carboxamide], the minimal inhibitory concentration (MIC) was 16 µg/mL in assay [1]; 64 µg/mL in assay [2]; 64 µg/mL in assay [3]; 32 µg/mL in assay [4]; 32 µg/mL in assay [5].
